A melting point compilation (Tetko et al.)

SMILES	melting point [°C]
CSc1c(C#N)c(N)nc2c(/N=N/c3ccc(F)cc3)c(N)nn12	228
CCC(CO)[N+](=O)[O-] (stereo unspecified)	-47
O=C(O)c1sc2sccc2c1Cl	252 to 258
O=S(=O)(O)CCCN1CCN(CCO)CC1	231
O=C1CCCC2=C1[C@@H](c1cccc([N+](=O)[O-])c1)[C@@H]1C(=O)CCC[C@@]1(O)O2	219
Cc1cc(Br)c(N)c(C(=O)O)c1	204
CCC(Oc1ccccc1)C(=O)O (stereo unspecified)	81
N=C(N)NC(=O)Cc1c(Cl)cccc1Cl	226
O=C(O)c1cccnc1Sc1ccccc1	165 to 167
O=C(O)c1cc2ccsc2s1	236
CCCC(O)C(CC)CO (stereo unspecified)	-40
N#Cc1ccccc1C(F)(F)F	18
COc1ccc2c(c1O)-c1c3c(cc4c1C(C2)N(C)CC4)OCO3 (stereo unspecified)	200
Brc1ccc2nonc2c1	72 to 74
OCc1ccccn1	5
CCCCCCCCCCCC(=O)OCCOCCO	17.5
c1ccc2c(c1)Cc1ccccc1S2	128
ClCc1ccc2c(c1)OCO2	20.5
CC1(NC(=O)c2ccccc2)COCOC1=O (racemic)	154 to 159
O=Cc1cccc2c1OCCO2	62 to 63
CCC(C)c1cc([N+](=O)[O-])cc([N+](=O)[O-])c1OC(=O)OC(C)C (stereo unspecified)	61.5
CCc1cc(C(N)=S)ccn1	164

SMILES	melting point [°C]
COc1cccc(C(=O)CBr)c1	62
CCCC(=O)c1ccc(Cl)cc1	36 to 39
O=C(O)c1cc2cc3c4c(c2oc1=O)CCCN4CCC3	240
CC(C)C=C1NC(c2ccccc2)OC1=O (stereo unspecified)	87
OCCOc1cccc2ccccc12	45
CC(=O)OC1CC[C@H]2[C@@H]3[C@H](C)CC4CC(=O)CC[C@]4(C)[C@H]3CC[C@]12C (stereo partly specified)	142
C/C=C/CCCCCCCC	-48.3
Cc1cc(C)n(C(N)=O)n1	113 to 115
CC(=O)Oc1cn(C(C)=O)c2ccc(Br)c(Cl)c12	166
Cc1ccc(NN=C2C(=O)OC(C)(C)OC2=O)cc1	130
CCCCCC(C)CO (stereo unspecified)	-112
CC(=O)c1cn(C)c2ccccc12	107
C[C@@H](O)c1ccncc1	68 to 70
O=C(C=Cc1ccc2c(c1)OCO2)c1ccc(O)cc1	209 to 210
S=c1[nH]ccn1-c1ccccc1Cl	246 to 248
COC(=O)C=Cc1ccc([N+](=O)[O-])c(C=CC(=O)OC)c1	200
CN(C)c1ccc(C=Cc2ccccc2)cc1	150
O=CCO	97
Nc1c(F)cc(F)cc1Cl	30
CC(CN(C)C)CN1c2ccccc2CCc2ccccc21 (stereo unspecified)	45
Cc1ccc2occ(C=O)c(=O)c2c1	169 to 174
CC(CCC(=O)O)C1CCC2C3C(O)CC4CC(O)CCC4(C)C3CC(=O)C12C (stereo unspecified)	220

SMILES	melting point [°C]
BrCCc1ccc(CCBr)cc1	73
CC(=O)c1[nH]c2ccccc2c1C	146 to 148
N#CC1(C(=O)c2ccccc2)C(c2ccccc2)NC(=O)NC1c1ccccc1 (stereo unspecified)	215 to 216
Cc1cc(C(=O)O)c(C)o1	135 to 139
C=CCN=C(S)NCCO	78
Nc1nc2ccc(OC(F)(F)F)cc2s1	119
O=C(O)C1CC(=O)N(Cc2ccc(C(F)(F)F)cc2)C1 (stereo unspecified)	128 to 130
Cc1cc(C(=O)O)cc(C)c1OCc1ccccc1	159
CC(=O)CCc1oc2ccc(NC(C)=O)cc2c1-c1ccc(C)o1	131 to 132
Nc1n[nH]c(S)n1	300
C=CCC1=C(C)C(OC(=O)C2C(C=C(C)C)C2(C)C)CC1=O (stereo unspecified)	4
C#CCNC(N)=O	130 to 131
O=C1C(=Cc2ccc(N(CCCl)CCCl)cc2)SC(=S)N1CN1CCOCC1	164
COc1ccc(Cn2cncn2)cc1	41.5
Brc1cccc2c(CNCc3cccc4c(Br)cccc34)cccc12	142
CCCN(CCC)C(=O)Cc1c(-c2ccc(Cl)cc2)nc2ccc(Cl)cn12	140
COC(=O)c1cccnc1N	84 to 86
Nc1csc2nccnc12	88 to 89
CCCOCC(C)O (stereo unspecified)	-80
CCC1C(C)=NN=C(c2ccc(OC)c(OC)c2)c2cc(OC)c(OC)cc21 (stereo unspecified)	156
Cc1ccc(C=O)cc1[N+](=O)[O-]	46
c1ccc(CC2CCCCN2)cc1 (stereo unspecified)	32

SMILES	melting point [°C]
O=C1c2ccccc2C(=O)N1CCCCCCCCBr	49 to 56
CCNc1nc(NC(C)CC)nc(OC)n1 (stereo unspecified)	87
CCOP(=O)(OCC)ON1C(=O)c2cccc3cccc(c23)C1=O	177
CC(CC(=O)O)c1ccc(C(=O)O)cc1 (stereo unspecified)	227 to 229
c1cnc2nc[nH]c2c1	148
Cc1nc2ccccc2n1CCC(=O)NN1C(=O)CSC1c1ccccc1Cl (stereo unspecified)	250
COc1cc(N)c(Cl)cc1C(=O)O	206 to 210
CCOC(=O)CC(=O)CCl	-8
CCn1cc(C(=O)O)c(=O)c2ccc(-c3ccncc3)cc21	290
CC(NC(=O)c1ccccc1)C(=O)O (racemic)	166
Clc1cc(N2CCCCC2)ncn1	79
Cc1nc(/C(C#N)=C/c2ccco2)sc1/N=N/c1c(Cl)cc(Cl)cc1Cl	156
CCCCCc1ccc(C(=O)O)cc1	85 to 90
CCCCCOC(=O)C1=C(C)NC(=O)NC1c1ccco1 (stereo unspecified)	166 to 167
Cc1c(C(C)C2NCC(C)CC2O)ccc2c1CC1C2CC=C2CC(O)CCC21C (stereo unspecified)	206
CC(=O)Nc1ccc(Br)cc1OC(F)(F)F	136
Clc1nncc2ccccc12	111
CCCc1ccc(NC(C)=O)cc1	98 to 100
FC(F)(F)c1cc(Cl)c2c(Cl)cc(Cl)cc2n1	111 to 114
CCC(=O)C(CC(C)N1CCOCC1)(c1ccccc1)c1ccccc1 (stereo unspecified)	75
CCOC(=O)/C(C#N)=C(/c1ccc([N+](=O)[O-])cc1)C(C(=O)OCC)C(=O)OCC	110
O=C(NC(Cc1ccc2ccccc2c1)C(=O)O)OCC1c2ccccc2-c2ccccc21 (stereo unspecified)	191

SMILES	melting point [°C]
CC(C)Nc1cccnc1N1CCN(C(=O)c2cc3cc(NS(C)(=O)=O)ccc3[nH]2)CC1	226
N#CCC(=O)c1ccc(N)cc1	159
O=C(NC(=O)c1c(F)cccc1F)Nc1cc(Cl)c(OC(F)(F)C(F)C(F)(F)F)cc1Cl (stereo unspecified)	169
Nc1nn2c(C(F)(F)F)cc(=O)[nH]c2c1/N=N/c1c(Br)cc(Br)cc1Br	92 to 94
CC(C)(C)C(=O)Nc1ccncc1C=O	60 to 64
COc1cc(OC)c2cc(C(=O)c3cccc4ccccc34)c(=O)oc2c1	210
CC(C)C/C(Cc1ccccc1)=N\NC(N)=O	89
FC(Cl)(Cl)C(Cl)Cl	-82.6
CC(CCC(=O)O)C1CCC2C3CCC4CC(=O)CCC4(C)C3CC(O)C12C (stereo unspecified)	107 to 109
CC(C)(C)OC(=O)NC(C)(C)C(=O)O	117 to 121
Cc1cc(O)c(Cl)cc1Cl	73
CC1(C)OC2C(=O)OC(CO)C2O1 (stereo unspecified)	136 to 140
Nc1ccc(Br)c(Cl)c1	74
OCc1cc(-c2cccs2)on1	62 to 64
O=C(Nc1nc2ccccc2s1)C(C(F)(F)F)C(F)(F)F	174
Brc1ccc2[nH]c3ccc(Br)cc3c2c1	212
N#CC1OCC(OC(=O)c2ccccc2)C(OC(=O)c2ccccc2)C1OC(=O)c1ccccc1 (stereo unspecified)	155
O=C1CC[C@H](C(=O)O)O1	69 to 72
CC1(C)CCC(=O)CC1=O	103 to 105
CC1(C)CC(=O)C2=C(C1)Nc1ccc3ccccc3c1C2c1ccccc1 (stereo unspecified)	314
N#C/C(=N\Nc1ccc(F)cc1)c1nc2ccccc2c(=O)[nH]1	215
Cc1n[nH]c(C)c1C(C)(C)C	104

SMILES	melting point [°C]
Cc1cc(Br)ccc1S(=O)(=O)Cl	65 to 67
Clc1cc(Cl)c(Cl)c(Br)c1	59
CNc1ccc(OC)cc1	33 to 36
CCNc1ccc2ccccc2c1N=Nc1ccc(N=Nc2ccccc2)cc1	130
Oc1cccc(-c2ccccc2)c1	78
O=[N+]([O-])c1cc(C(F)(F)F)c(Cl)cc1Cl	55
O=C(O)Cc1cccs1	63
CN(C)C(=S)N(C)C	79.3
FC(F)(F)c1ccnc(S)n1	161 to 166
CCN(CC)CCc1c[nH]c2ccccc12	170
Cc1ccc2c(c1)C(=O)C2	46
CSc1nc2cc(NCc3ccc4c(c3)OCO4)ccc2[nH]1	146 to 148
O=C(CCl)Nc1ccc(F)cc1F	79 to 81
COC(=O)C1=C(C(=O)OC)C2(CCl)c3ccccc3C1c1ccccc12	169
S=c1[nH]c2ccc(Cl)cc2o1	229 to 232
O=C1C(=Cc2ccc(N(CCCl)CCCl)cc2)SC(=S)N1CN(CCCl)CCCl	106
CCOC(=O)Cc1nn(CC(N)=S)c(=O)c2ccccc12	150 to 152
CC(C)(C)OC(=O)C1(S(=O)(=O)c2ccc(Cl)cc2)CC1	110
O=Cc1cnc2ccccc2c1	68 to 71
CCNS(=O)(=O)C(F)(F)C(F)(F)C(F)(F)C(F)(F)C(F)(F)C(F)(F)C(F)(F)C(F)(F)F	96
CCCOCCC	-122
